Reference: the NIST ThermoML archive (doi:10.1021/je050402s)

Assay: xn = mol fraction of the nth substance listed
Conditions: 100.5 kPa, Liquid; for viscosity: Capillary tube (Ostwald / Ubbelohde) method

CCOC(=O)CC(C)=O [ethyl 3-oxobutanoate] + CCO
Conditions | mass density, 288.15 K [kg/m3] | mass density, 298.15 K [kg/m3] | mass density, 308.15 K [kg/m3] | mass density, 318.15 K [kg/m3] | viscosity, 288.15 K [mPa·s] | viscosity, 298.15 K [mPa·s] | viscosity, 308.15 K [mPa·s] | viscosity, 318.15 K [mPa·s]
x1 = 0.05 | 818.78 | 809.91 | 800.94 | 791.8 | 1.266 | 1.042 | 0.869 | 0.731
x1 = 0.1 | 841 | 831.89 | 822.68 | 813.32 | 1.204 | 1.001 | 0.841 | 0.713
x1 = 0.15 | 860.94 | 851.63 | 842.22 | 832.67 | 1.19 | 0.99 | 0.832 | 0.709
x1 = 0.2 | 878.93 | 869.45 | 859.89 | 850.17 | 1.194 | 0.994 | 0.837 | 0.712
x1 = 0.25 | 895.25 | 885.63 | 875.91 | 866.05 | 1.206 | 1.003 | 0.846 | 0.721
x1 = 0.3 | 910.15 | 900.41 | 890.57 | 880.6 | 1.226 | 1.019 | 0.86 | 0.735
x1 = 0.35 | 923.79 | 913.94 | 903.99 | 893.92 | 1.25 | 1.038 | 0.878 | 0.751
x1 = 0.4 | 936.31 | 926.37 | 916.34 | 906.18 | 1.28 | 1.061 | 0.898 | 0.768
x1 = 0.45 | 947.86 | 937.83 | 927.73 | 917.49 | 1.312 | 1.087 | 0.921 | 0.789
x1 = 0.5 | 958.56 | 948.47 | 938.29 | 927.99 | 1.349 | 1.117 | 0.947 | 0.812
x1 = 0.55 | 968.53 | 958.37 | 948.11 | 937.75 | 1.39 | 1.151 | 0.974 | 0.836
x1 = 0.6 | 977.79 | 967.55 | 957.24 | 946.84 | 1.435 | 1.189 | 1.004 | 0.861
x1 = 0.65 | 986.4 | 976.13 | 965.77 | 955.36 | 1.484 | 1.227 | 1.036 | 0.888
x1 = 0.7 | 994.51 | 984.17 | 973.79 | 963.33 | 1.536 | 1.27 | 1.073 | 0.917
x1 = 0.75 | 1002.07 | 991.71 | 981.29 | 970.82 | 1.591 | 1.316 | 1.112 | 0.948
x1 = 0.8 | 1009.18 | 998.79 | 988.36 | 977.88 | 1.65 | 1.366 | 1.154 | 0.983
x1 = 0.85 | 1015.85 | 1005.46 | 995.02 | 984.54 | 1.709 | 1.415 | 1.199 | 1.018
x1 = 0.9 | 1022.16 | 1011.74 | 1001.3 | 990.84 | 1.773 | 1.471 | 1.247 | 1.059
x1 = 0.95 | 1028.15 | 1017.72 | 1007.29 | 996.82 | 1.834 | 1.524 | 1.295 | 1.103
x1 = 1 | 1033.92 | 1023.45 | 1013 | 1002.54 | 1.902 | 1.581 | 1.344 | 1.144
